Results: publication PMC11589570, “Critical assessment of LC3/GABARAP ligands used for degrader development and ligandability of LC3/GABARAP binding pockets” (Nature Communications, 2024)
Where “and” joins values, the source holds several entries; their conditions need not be identical. Equal entries are not always repeated.

Tests used:
[1] = system: RPE1 cells; test: Cell growth assay (IncuCyte confluence over 72 h); assay type: cell-based
Method: (§1) Cell growth assay: Cell confluence (phase) from RPE1 (hTERT RPE-1, ATCC CLR_4000) or U2OS (ATCC, HTB-96) cell lines were monitored over time with the IncuCyte S3 (Sartiorius, Germany) in 384-well plates in 50 ul DMEM media, supplemented with 10% Fetal Bovine Serum (FBS) 1% penicillin/Streptomycin and incubated 24 h before treatment. Experiment was performed as described in Cano-Franco et al.. 50 μl of media containing either 2× final concentration of indicated compounds in or control compounds (final conc.: 0.1% DMSO, 250 nM Torin1, 200 ng/mL Bafilomycin) were added and images were taken every two hours over 72 h. Cell confluence is represented as % of area covered by cells. Each data point represents the average ratio or confluence obtained from three individual wells of the plate.

[2] = system: U2OS cells; test: Cell growth assay (IncuCyte confluence over 72 h); assay type: cell-based; set-up: key to U2OS cell growth: % of well area covered by cells (confluence)
Method: as §1, with “50 μl of media containing either 2× final concentration of indicated compounds in or control compounds (final conc.: 0.1% DMSO, 250 nM Torin1, 200 ng/mL Bafilomycin) were added and images were taken every two hours over 72 h.” left out

[3] = target: LC3A (Homo sapiens, UniProt Q9H492); test: FP assay with Cy5-labelled p62 LIR tracer (protein titration and tracer displacement); assay type: binding; details: LC3A tracer displacement, normalized on p62-LIR positive control

Compound: O=C1CC(c2ccc(Cl)c(Cl)c2)CC(=O)C1=CNCCN1CCNCC1 (centres unmarked) [Cov-3]
- RPE1 cell growth ([1]; 100 nM, 0 h): 12 and 21 and 11
- RPE1 cell growth ([1]; 100 nM, 2 h): 14 and 25 and 13
- RPE1 cell growth ([1]; 100 nM, 6 h): 19 and 28 and 14
- RPE1 cell growth ([1]; 100 nM, 12 h): 20 and 32 and 17
- RPE1 cell growth ([1]; 500 nM, 0 h): 15 and 23 and 13
- RPE1 cell growth ([1]; 500 nM, 2 h): 16 and 27 and 14
- RPE1 cell growth ([1]; 500 nM, 6 h): 20 and 32 and 17
- RPE1 cell growth ([1]; 500 nM, 10 h): 21 and 34 and 17
- RPE1 cell growth ([1]; 500 nM, 12 h): 23 and 35 and 18
- RPE1 cell growth ([1]; 1 uM, 0 h): 13 and 24
- RPE1 cell growth ([1]; 1 uM, 8 h): 16 and 20 and 31
- RPE1 cell growth ([1]; 1 uM, 10 h): 17 and 18 and 32
- RPE1 cell growth ([1]; 1 uM, 12 h): 18 and 19 and 34
- RPE1 cell growth ([1]; 3 uM, 0 h): 16 and 20 and 13
- RPE1 cell growth ([1]; 3 uM, 2 h): 21 and 23 and 14
- RPE1 cell growth ([1]; 3 uM, 4 h): 23 and 26 and 14
- RPE1 cell growth ([1]; 3 uM, 6 h): 24 and 27 and 16
- RPE1 cell growth ([1]; 3 uM, 8 h): 24 and 29 and 17
- RPE1 cell growth ([1]; 3 uM, 10 h): 23 and 29 and 18
- RPE1 cell growth ([1]; 3 uM, 12 h): 26 and 31 and 20
- RPE1 cell growth ([1]; 5 uM, 0 h): 16 and 20 and 13
- RPE1 cell growth ([1]; 5 uM, 2 h): 20 and 24 and 15
- RPE1 cell growth ([1]; 5 uM, 4 h): 22 and 26 and 15
- RPE1 cell growth ([1]; 5 uM, 6 h): 23 and 28 and 18
- RPE1 cell growth ([1]; 5 uM, 8 h): 24 and 30 and 18
- RPE1 cell growth ([1]; 5 uM, 10 h): 22 and 29 and 19
- RPE1 cell growth ([1]; 5 uM, 12 h): 23 and 32 and 20
- RPE1 cell growth ([1]; 10 uM, 0 h): 16 and 20 and 13
- RPE1 cell growth ([1]; 10 uM, 2 h): 19 and 23 and 17
- RPE1 cell growth ([1]; 10 uM, 4 h): 22 and 25 and 18
- RPE1 cell growth ([1]; 10 uM, 6 h): 22 and 29 and 20
- RPE1 cell growth ([1]; 10 uM, 8 h): 24 and 31 and 21
- RPE1 cell growth ([1]; 10 uM, 10 h): 23 and 30
- RPE1 cell growth ([1]; 10 uM, 12 h): 26 and 32 and 23
- U2OS cell growth ([2]; 100 nM, time 10 h): 33.6743 and 37.4722 and 28.8223
- U2OS cell growth ([2]; 100 nM, time 0 h): 14.5416 and 22.9345 and 12.3076
- U2OS cell growth ([2]; 100 nM, time 2 h): 20.4728 and 24.9456 and 18.1328
- U2OS cell growth ([2]; 100 nM, time 4 h): 32.466 and 35.1005 and 23.9495
- U2OS cell growth ([2]; 100 nM, time 6 h): 27.7123 and 37.9082 and 23.0201
- U2OS cell growth ([2]; 100 nM, time 8 h): 36.178 and 29.1087 and 28.1634
- U2OS cell growth ([2]; 500 nM, time 0 h): 19.4597 and 15.6761 and 23.7515
- U2OS cell growth ([2]; 500 nM, time 2 h): 17.2401 and 19.2948 and 26.8842
- U2OS cell growth ([2]; 500 nM, time 4 h): 23.0548 and 20.6729 and 33.4847
- U2OS cell growth ([2]; 500 nM, time 6 h): 31.9275 and 22.0748 and 27.2708
- U2OS cell growth ([2]; 500 nM, time 8 h): 20.0458 and 23.4357 and 28.1267
- U2OS cell growth ([2]; 1 uM, time 10 h): 29.6152
- U2OS cell growth ([2]; 1 uM, time 0 h): 18.8183 and 26.6645 and 23.9984
- U2OS cell growth ([2]; 1 uM, time 2 h): 21.0614 and 26.8371 and 29.3905
- U2OS cell growth ([2]; 1 uM, time 4 h): 24.6352 and 31.1306 and 32.3496
- U2OS cell growth ([2]; 1 uM, time 6 h): 26.5224 and 36.4121 and 30.4909
- U2OS cell growth ([2]; 1 uM, time 8 h): 20.3314 and 37.2236 and 29.7059
- U2OS cell growth ([2]; 3 uM, time 0 h): 36.1248 and 21.9705 and 35.4647
- U2OS cell growth ([2]; 3 uM, time 2 h): 38.4423 and 25.3153 and 30.1014
- U2OS cell growth ([2]; 3 uM, time 4 h): 41.4594 and 31.6601 and 38.4044
- U2OS cell growth ([2]; 3 uM, time 6 h): 35.1153 and 23.5308 and 36.0085
- U2OS cell growth ([2]; 3 uM, time 8 h): 37.1896 and 25.2973 and 34.3262
- U2OS cell growth ([2]; 5 uM, time 10 h): 45.8479 and 32.8378 and 36.0561
- U2OS cell growth ([2]; 5 uM, time 0 h): 35.0072 and 29.5152 and 28.3077
- U2OS cell growth ([2]; 5 uM, time 2 h): 34.3656 and 30.4257 and 30.1228
- U2OS cell growth ([2]; 5 uM, time 4 h): 36.9905 and 31.4377 and 28.9247
- U2OS cell growth ([2]; 5 uM, time 6 h): 42.578 and 38.6163 and 31.6899
- U2OS cell growth ([2]; 5 uM, time 8 h): 38.0361 and 32.4495 and 27.1279
- U2OS cell growth ([2]; 10 uM, time 10 h): 36.2219 and 24.7441 and 23.9347
- U2OS cell growth ([2]; 10 uM, time 0 h): 31.5761 and 18.5024 and 22.4964
- U2OS cell growth ([2]; 10 uM, time 2 h): 30.3213 and 20.7145 and 20.7242
- U2OS cell growth ([2]; 10 uM, time 4 h): 34.613 and 22.1736 and 25.1322
- U2OS cell growth ([2]; 10 uM, time 6 h): 35.028 and 21.2307 and 23.3926
- U2OS cell growth ([2]; 10 uM, time 8 h): 32.1571 and 22.7698 and 18.9042

Compound: CCCCCCC(Sc1nc(Cl)cc(Nc2nc(-c3ccc(Cl)cc3)cs2)n1)C(=O)O (centres unmarked) [TH018]
- % tracer bound @LC3A [3]: 81%

Compound: CCCCCCC(Sc1nc(Cl)cc(Nc2nc(-c3ccccc3)cs2)n1)C(=O)O (centres unmarked) [TH020]
- % tracer bound @LC3A [3]: 84%

Compound: CCCCCCC(Sc1nc(Cl)cc(Nc2nc(-c3ccc(Br)cc3)cs2)n1)C(=O)O (centres unmarked) [TH026]
- % tracer bound @LC3A [3]: 79%

Compound: CCCCCCC(Sc1nc(Cl)cc(Nc2nc(-c3ccc4ccccc4c3)cs2)n1)C(=O)O (centres unmarked) [TH034]
- % tracer bound @LC3A [3]: 79%

Compound: CCC(Sc1nc(Cl)cc(Nc2nc(-c3ccc(Cl)cc3)cs2)n1)C(=O)O (centres unmarked) [TH035]
- % tracer bound @LC3A [3]: 85%

Compound: CCCCCCC(Sc1nc(Cl)cc(Nc2nc(-c3ccc(F)c(F)c3)cs2)n1)C(=O)O (centres unmarked) [TH044]
- % tracer bound @LC3A [3]: 76%

Compound: CCCCCCC(Sc1nc(Cl)cc(Nc2nc(-c3ccc(F)cc3F)cs2)n1)C(=O)O (centres unmarked) [TH054]
- % tracer bound @LC3A [3]: 75%

Compound: CCCCCCC(Sc1nc(Cl)cc(Nc2nc(-c3ccc([N+](=O)[O-])cc3)cs2)n1)C(=O)O (centres unmarked) [TH056]
- % tracer bound @LC3A [3]: 61%

Compound: CCCCCCC(Sc1nc(Cl)cc(Nc2nc(-c3ccc(Br)cc3)c(C)s2)n1)C(=O)O (centres unmarked) [TH057]
- % tracer bound @LC3A [3]: 94%

Compound: COc1ccc(CN(Cc2cccc(C#N)c2)S(=O)(=O)c2ccc(C(=O)O)cc2)cc1 [TH061]
- % tracer bound @LC3A [3]: 83%

Compound: CCCCCCC(Sc1nc(Cl)cc(Nc2nc3c(s2)CCc2cc(OC)ccc2-3)n1)C(=O)O (centres unmarked) [TH062]
- % tracer bound @LC3A [3]: 76%

Compound: CCCCCCC(Sc1nc(Cl)cc(Nc2nc(-c3ccc(Cl)c(Cl)c3)cs2)n1)C(=O)O (centres unmarked) [TH083]
- % tracer bound @LC3A [3]: 84%

Compound: CCCCCCC(Sc1nc(Cl)cc(Nc2nc(-c3ccc(C(F)(F)F)cc3)cs2)n1)C(=O)O (centres unmarked) [TH084]
- % tracer bound @LC3A [3]: 76%

Compound: CCCCCCC(Sc1nc(Cl)cc(Nc2nc(-c3ccccc3)c(CC)s2)n1)C(=O)O (centres unmarked) [TH100]
- % tracer bound @LC3A [3]: 77%

Compound: CCCCCCC(Sc1nc(Cl)cc(Nc2nc(-c3ccc(Cl)cc3Cl)cs2)n1)C(=O)O (centres unmarked) [TH102]
- % tracer bound @LC3A [3]: 78%

Compound: CCCCCCC(Sc1nc(Cl)cc(Nc2nc(-c3ccc(-c4ccccc4)cc3)cs2)n1)C(=O)O (centres unmarked) [TH104]
- % tracer bound @LC3A [3]: 82%

Compound: CCCCCCC(Sc1nc(Cl)cc(Nc2nc(C34CC5CC(CC(C5)C3)C4)cs2)n1)C(=O)O (centres unmarked) [TH105]
- % tracer bound @LC3A [3]: 84%

Compound: CCC(Sc1nc(Cl)cc(Nc2nc(-c3ccc4ccccc4c3)cs2)n1)C(=O)O (centres unmarked) [TH107]
- % tracer bound @LC3A [3]: 82%

Compound: COc1ccc(CN(CC2CCCCC2)S(=O)(=O)c2ccc(C(=O)O)cc2)cc1 [TH119]
- % tracer bound @LC3A [3]: 92%

Compound: CCCCCCC(Sc1nc(Cl)cc(Nc2nc(-c3ccc(OC)cc3)cs2)n1)C(=O)O (centres unmarked) [TH121]
- % tracer bound @LC3A [3]: 83%

Compound: O=C(O)c1ccc(S(=O)(=O)N(Cc2ccc(Oc3ccccc3)cc2)CC2CCCCC2)cc1 [TH133]
- % tracer bound @LC3A [3]: 82%

Compound: CCCCCCC(Sc1nc2ccc(NC(=O)c3ccc(C(C)(C)C)cc3)cc2s1)C(=O)O (centres unmarked) [TH177]
- % tracer bound @LC3A [3]: 85%

Compound: CCCCCCC(Sc1nc2ccc(NC(=O)c3ccc(-c4ccccc4)cc3)cc2s1)C(=O)O (centres unmarked) [TH181]
- % tracer bound @LC3A [3]: 78%

Compound: CCCCCCC(Sc1nc2ccc(NCc3ccc(C(C)(C)C)cc3)cc2s1)C(=O)O (centres unmarked) [TH185]
- % tracer bound @LC3A [3]: 82%

Compound: CCCCC(Sc1nc2ccc(NC(=O)c3ccc(C(C)(C)C)cc3)cc2s1)C(=O)O (centres unmarked) [TH188]
- % tracer bound @LC3A [3]: 89%

Compound: CCCCCCC(Sc1nc2ccc(NCc3ccc4ccccc4c3)cc2s1)C(=O)O (centres unmarked) [TH191]
- % tracer bound @LC3A [3]: 78%

Compound: CCCCCCC(Sc1nc2ccc(NCc3ccccc3)cc2s1)C(=O)O (centres unmarked) [TH195]
- % tracer bound @LC3A [3]: 78%

Compound: CCCCCCC(Sc1nc2ccc(NCc3ccc(Cl)c(Cl)c3)cc2s1)C(=O)O (centres unmarked) [TH198]
- % tracer bound @LC3A [3]: 79%

Compound: CCCCCCC(Sc1nc2ccc(NCc3ccc(-c4ccccc4)cc3)cc2s1)C(=O)O (centres unmarked) [TH200]
- % tracer bound @LC3A [3]: 72%

Compound: O=C(NCc1ccccc1)c1ccc(S(=O)(=O)Nc2ccccc2)cc1 [TH253]
- % tracer bound @LC3A [3]: 88%

Compound: Cc1ccc(NS(=O)(=O)c2ccc(C(=O)N(C)Cc3ccccc3)cc2)cc1 [TH281]
- % tracer bound @LC3A [3]: 95%

Compound: CN(Cc1ccccc1)C(=O)c1ccc(S(=O)(=O)Nc2ccccc2)cc1 [TH676]
- % tracer bound @LC3A [3]: 84%

Compound: CCN(Cc1ccccc1)C(=O)c1ccc(S(=O)(=O)Nc2ccccc2)cc1 [TH677]
- % tracer bound @LC3A [3]: 87%
